Data as given in patent US9958439B2, “Carbohydrate detection” (RICHTER LIFE SCIENCE DEVELOPMENT AB, priority 2012, dated 2018).
Read-outs that look alike come from different tables or passages of the source.

Assays:
[1] = for RFU change (Correlation analysis) / RFU change (Signal deviation with increasing [Carbohydrate]) / λmax change: 3 μM probe; for RFU change (Correlation analysis): probe-specific excitation λ, emission 545 nm; for RFU change (Signal deviation with increasing [Carbohydrate]) / λmax change: spectral analysis, Excitation 300-500, Emission 545; for carbohydrate can be detected and/or differentiated by the LCO: conclusion from change in signal magnitude and/or shift in λmax; for Gradient Parameters (gradient of regression line) / Linear relationship / Quality of Gradient: linear regression
How it was run: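 Each LCO probe at 3 μM was added to two-fold serial dilutions of carbohydrate in dH2O (10–0.039 mg/ml for β-1,3-glucan, cellulose, chitin; 5–0.019 mg/ml for the others), run in triplicate. Excitation spectra were scanned 300–500 nm with emission at 545 nm. Detection was a reproducible λmax and/or RFU shift versus negative control, with linear regression of RFU against concentration.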

[2] = How it was run: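 LCO probes (3 μM) were added to serial two-fold dilutions of carbohydrate suspensions in dH2O, with excitation scanned 300–500 nm and emission at 545 nm. Detection was a reproducible λmax and/or RFU change versus no-carbohydrate control. RFU was regressed linearly against concentration at the λmax or the lowest-background excitation.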
[3] = remark: listed apart in the source
How it was run: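 LCO probes at 3 μM mixed with serial two-fold carbohydrate dilutions in water (10–0.039 or 5–0.019 mg/ml), run in triplicate. Excitation scanned 300–500 nm with emission at 545 nm; detection based on reproducible λmax or RFU shift against the no-carbohydrate control, with linear regression of RFU on concentration.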

[4] = for RFU change (Correlation analysis): probe-specific excitation λ, emission 545 nm
How it was run: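 LCO probes at 3 μM mixed with serial two-fold dilutions of carbohydrate in dH2O (10–0.039 or 5–0.019 mg/ml, depending on carbohydrate), in triplicate. Excitation scanned 300–500 nm or fixed per probe (λmax or lowest background), emission at 545 nm. Detection taken as reproducible λmax/RFU shift vs no-carbohydrate control; RFU regressed linearly on concentration.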

[5] = for RFU change (Correlation analysis): probe-specific excitation λ, emission 545 nm; for Gradient Parameters (gradient of regression line) / Linear relationship / Quality of Gradient: linear regression
How it was run: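 LCO probes at 3 μM mixed with serial twofold carbohydrate dilutions in dH2O (10–0.039 or 5–0.019 mg/ml, depending on carbohydrate). Excitation scanned 300–500 nm, emission read at 545 nm; detection defined as reproducible shift in λmax and/or RFU relative to negative control, with linear regression of RFU against concentration.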

[6] = remark: listed apart in the source
How it was run: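 3 μM of each LCO probe was added to serial two-fold carbohydrate dilutions in water (10–0.039 or 5–0.019 mg/ml). Excitation spectra were scanned 300–500 nm with emission at 545 nm, in triplicate. Detection was defined as a reproducible shift in λmax and/or RFU versus negative control, with linear regression of RFU against concentration.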

[7] = β-1,3-glucan concentration vs RFU
[8] = sodium alginate concentration vs RFU, linear regression
[9] = glucose concentration vs RFU, linear regression
[10] = Cellulobiose 5-0.019 mg/ml, 3 μM probe, spectral analysis, Excitation 300-500, Emission 545
[11] = amylose concentration vs RFU, linear regression
[12] = cellulobiose concentration vs RFU, linear regression
[13] = Glycogen 5-0.019 mg/ml, 3 μM probe, spectral analysis, Excitation 300-500, Emission 545
[14] = Chondroitin Sulfate A 5-0.019 mg/ml, 3 μM probe, spectral analysis, Excitation 300-500, Emission 545
[15] = Chondroitin Sulfate A concentration vs RFU, linear regression

**Q.** For `Cl.Cl.O=C(Cc1cc(-c2cccs2)sc1-c1ccc(-c2sc(-c3cccs3)cc2CC(=O)NCCc2c[nH]cn2)s1)NCCc1c[nH]cn1` [pHTA-His, penta Hydrogen Thiophene Acetic acid Histidine], which “RFU change (Correlation analysis)” value ([1]; Cellulose 10-[…]) is on record?
**A.** Increase

**Q.** And the “RFU change (Signal deviation with increasing [Carbohydrate])” value ([1]; Cellulose 10-[…])?
**A.** Increase

**Q.** What about the λmax change ([1]; Cellulose 10-[…]) of the same compound?
**A.** Redshift

**Q.** And the “carbohydrate can be detected and/or differentiated by the LCO” value ([1]; Cellulose)?
**A.** can be detected and/or differentiated

**Q.** What about the “RFU change (Correlation analysis)” value ([1]; Chitin 10-[…]) of the same compound?
**A.** Increases

**Q.** And the “RFU change (Signal deviation with increasing [Carbohydrate])” value ([1]; Chitin 10-[…])?
**A.** Increases

**Q.** What about the λmax change ([1]; Chitin 10-[…]) of the same compound?
**A.** Redshift

**Q.** What about the “carbohydrate can be detected and/or differentiated by the LCO” value ([1]; Chitin) of the same compound?
**A.** can be detected and/or differentiated

**Q.** And the “Gradient Parameters (gradient of regression line)” value (from here on “Gradient Parameters”) ([1]; cellulose concentration vs RFU)?
**A.** 725.9 ± 124.6

**Q.** What about the Linear relationship ([1]; cellulose concentration vs RFU) of the same compound?
**A.** Significant

**Q.** And the “Quality of Gradient” value ([1]; cellulose concentration vs RFU)?
**A.** Positive

**Q.** And the “Gradient Parameters” value ([1]; chitin concentration vs RFU)?
**A.** 117.2 ± 25.7

**Q.** What about the Linear relationship ([1]; chitin concentration vs RFU) of the same compound?
**A.** Significant

**Q.** What about the “Quality of Gradient” value ([1]; chitin concentration vs RFU) of the same compound?
**A.** Positive

**Q.** What about the Sensitivity ([1]; to cellulose) of the same compound?
**A.** Yes

**Q.** What about the Sensitivity ([1]; to chitin) of the same compound?
**A.** Yes

**Q.** What about the Sensitivity ([1]; to β-1,3-glucan) of the same compound?
**A.** No

**Q.** What about the “RFU change (Correlation analysis)” value ([1]; β-1,3-glucan 10-[…]) of the same compound?
**A.** Unclear

**Q.** What about the “RFU change (Signal deviation with increasing [Carbohydrate])” value ([1]; β-1,3-glucan 10-[…]) of the same compound?
**A.** Unclear

**Q.** And the “Gradient Parameters” value [1, 7]?
**A.** −7.071 ± 34

**Q.** What about the “Quality of Gradient” value [1, 7] of the same compound?
**A.** Horizontal

**Q.** And the “RFU change (Correlation analysis)” value ([2]; Sodium alginate 5-0.019 mg/ml, 3 μM probe, probe-specific excitation λ, emission 545 nm)?
**A.** Increases

**Q.** What about the “RFU change (Signal deviation with increasing [Carbohydrate])” value ([2]; Sodium alginate 5-0.019 mg/ml, 3 μM probe, spectral analysis, Excitation 300-500, Emission 545) of the same compound?
**A.** Increases

**Q.** What about the “carbohydrate can be detected and/or differentiated by the LCO” value ([2]; Sodium alginate, conclusion from change in signal magnitude and/or shift in λmax) of the same compound?
**A.** can be detected and/or differentiated

**Q.** And the “Gradient Parameters” value [2, 8]?
**A.** 199.9 ± 36.3

**Q.** And the Linear relationship [2, 8]?
**A.** Significant

**Q.** And the “Quality of Gradient” value [2, 8]?
**A.** Positive

**Q.** What about the Sensitivity ([2]; to sodium alginate) of the same compound?
**A.** Yes

**Q.** What about the “RFU change (Correlation analysis)” value ([3]; Glucose 5-0.019 mg/ml, 3 μM probe, probe-specific excitation λ, emission 545 nm) of the same compound?
**A.** Unclear

**Q.** What about the “RFU change (Signal deviation with increasing [Carbohydrate])” value ([3]; Glucose 5-0.019 mg/ml, 3 μM probe, spectral analysis, Excitation 300-500, Emission 545) of the same compound?
**A.** Increases

**Q.** And the “Gradient Parameters” value [3, 9]?
**A.** 33.2 ± 25.2

**Q.** What about the “Quality of Gradient” value [3, 9] of the same compound?
**A.** Horizontal

**Q.** What about the Sensitivity ([3]; to glucose) of the same compound?
**A.** No

**Q.** And the “RFU change (Correlation analysis)” value ([4]; Amylose 5-0.019 mg/ml, 3 μM probe)?
**A.** Decreases

**Q.** And the “RFU change (Signal deviation with increasing [Carbohydrate])” value ([4]; Amylose 5-0.019 mg/ml, 3 μM probe, spectral analysis, Excitation 300-500, Emission 545)?
**A.** Decreases

**Q.** And the “carbohydrate can be detected and/or differentiated by the LCO” value ([4]; Amylose, conclusion from change in signal magnitude and/or shift in λmax)?
**A.** can be detected and/or differentiated

**Q.** And the “RFU change (Correlation analysis)” value ([4]; Cellulobiose 5-0.019 mg/ml, 3 μM probe)?
**A.** Unclear

**Q.** What about the “RFU change (Signal deviation with increasing [Carbohydrate])” value [4, 10] of the same compound?
**A.** Unclear

**Q.** And the λmax change [4, 10]?
**A.** No change

**Q.** And the “Gradient Parameters” value [4, 11]?
**A.** −341.5 ± 47.3

**Q.** What about the Linear relationship [4, 11] of the same compound?
**A.** Significant

**Q.** And the “Quality of Gradient” value [4, 11]?
**A.** Negative

**Q.** What about the “Gradient Parameters” value [4, 12] of the same compound?
**A.** −5.26 ± 4.87

**Q.** And the “Quality of Gradient” value [4, 12]?
**A.** Horizontal

**Q.** And the Sensitivity ([4]; to amylose)?
**A.** Yes

**Q.** What about the Sensitivity ([4]; to cellulobiose) of the same compound?
**A.** No

**Q.** What about the “RFU change (Correlation analysis)” value ([5]; Glycogen 5-0.019 mg/ml, 3 μM probe) of the same compound?
**A.** Increases

**Q.** And the “RFU change (Signal deviation with increasing [Carbohydrate])” value [5, 13]?
**A.** Increases

**Q.** What about the λmax change [5, 13] of the same compound?
**A.** Redshift

**Q.** And the “carbohydrate can be detected and/or differentiated by the LCO” value ([5]; Glycogen, conclusion from change in signal magnitude and/or shift in λmax)?
**A.** can be detected and/or differentiated

**Q.** What about the “RFU change (Correlation analysis)” value ([5]; Heparin 5-0.019 mg/ml, 3 μM probe) of the same compound?
**A.** Unclear

**Q.** And the “RFU change (Signal deviation with increasing [Carbohydrate])” value ([5]; Heparin 5-0.019 mg/ml, 3 μM probe, spectral analysis, Excitation 300-500, Emission 545)?
**A.** Decreases

**Q.** And the “Gradient Parameters” value ([5]; glycogen concentration vs RFU)?
**A.** 130.6 ± 55.6

**Q.** And the Linear relationship ([5]; glycogen concentration vs RFU)?
**A.** Significant

**Q.** What about the “Quality of Gradient” value ([5]; glycogen concentration vs RFU) of the same compound?
**A.** Positive

**Q.** What about the “Gradient Parameters” value ([5]; heparin concentration vs RFU) of the same compound?
**A.** 26.3 ± 18.5

**Q.** What about the Linear relationship ([5]; heparin concentration vs RFU) of the same compound?
**A.** Not Significant

**Q.** What about the “Quality of Gradient” value ([5]; heparin concentration vs RFU) of the same compound?
**A.** Horizontal

**Q.** And the Sensitivity ([5]; to glycogen)?
**A.** Yes

**Q.** What about the Sensitivity ([5]; to heparin) of the same compound?
**A.** No

**Q.** What about the “RFU change (Correlation analysis)” value ([6]; Chondroitin Sulfate A 5-0.019 mg/ml, 3 μM probe, probe-specific excitation λ, emission 545 nm) of the same compound?
**A.** Increases

**Q.** What about the “RFU change (Signal deviation with increasing [Carbohydrate])” value [6, 14] of the same compound?
**A.** Increases

**Q.** What about the λmax change [6, 14] of the same compound?
**A.** Blueshift

**Q.** And the “Gradient Parameters” value [6, 15]?
**A.** 163.8 ± 20.77

**Q.** And the Linear relationship [6, 15]?
**A.** Significant

**Q.** And the “Quality of Gradient” value [6, 15]?
**A.** Positive

**Q.** What about the “carbohydrate can be detected and/or differentiated by the LCO” value ([6]; Chondroitin sulfate A, conclusion from change in signal magnitude and/or shift in λmax) of the same compound?
**A.** can be detected and/or differentiated

**Q.** And the Sensitivity ([6]; to Chondroitin Sulfate A)?
**A.** Yes
